target: T1, human glycolate oxidase (hGO) (Homo sapiens, UniProt Q9UJM8); experiment: In vitro inhibition of human glycolate oxidase (enzymatic assay, HRP-coupled Trinder reaction); assay type: biochemical; details: not given;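 for % Inhibition: values are IC50 potency bins despite the % Inhibition label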
T1 construct: His-tag (6 histidines, pET-15b) (N); made in house; host or cells: E. coli BL21 (DE3)
T1 sequence (Q9UJM8 1-370): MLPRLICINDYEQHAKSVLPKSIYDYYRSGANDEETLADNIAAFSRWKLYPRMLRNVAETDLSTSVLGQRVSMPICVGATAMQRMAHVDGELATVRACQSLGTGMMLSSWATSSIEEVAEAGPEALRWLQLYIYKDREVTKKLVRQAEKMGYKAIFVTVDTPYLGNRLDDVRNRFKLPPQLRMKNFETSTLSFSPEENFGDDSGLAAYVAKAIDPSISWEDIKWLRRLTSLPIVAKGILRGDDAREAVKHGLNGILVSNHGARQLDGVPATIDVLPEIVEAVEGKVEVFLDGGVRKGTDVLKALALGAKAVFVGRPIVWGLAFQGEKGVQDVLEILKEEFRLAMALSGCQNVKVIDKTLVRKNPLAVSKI
Method in brief: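 Recombinant N-terminal His-tagged human GO from E. coli, Ni-NTA purified. Activity with 40 mM glycolate in 50 mM KPO4, 0.1 mM EDTA, pH 7; H2O2 formed quantified by HRP Trinder reaction (4-aminoantipyrine, sulphonated DCIP) as quinoneimine absorbance, 1 minute after Trinder initiation.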

Row | IC50 | Structure (SMILES)
1 | 100 to 200 nM | O=C(O)c1nn[nH]c1Sc1ccc(Br)cc1 [Example 52, 5-((4-bromophenyl)thio)-1H-1,2,3-triazole-4-carboxylic Acid]

same assay, conditions: recombinant hGO, 40 mM glycolic acid, pH 7, read at 515 nm, 1 minute after initiation of Trinder reaction; read-out: % Inhibition

Row | Structure (SMILES) | IC50
2 | CC(C)c1ccc(-c2cccc(Oc3[nH]nnc3C(=O)O)c2)cc1 [Example 111, 5-((4′-isopropyl-[1,1′-biphenyl]-3-yl)oxy)-1H-1,2,3-triazole-4-carboxylic Acid] | 100 to 200 nM
3 | O=C(O)c1nn[nH]c1Oc1ccc(-c2cc(F)cnc2Cl)cc1 [Example 99, 5-(4-(2-chloro-5-fluoropyridin-3-yl)phenoxy)-1H-1,2,3-triazole-4-carboxylic Acid] | < 100 nM
4 | CC(C)c1cccc(-c2ccc(Oc3[nH]nnc3C(=O)O)cc2)c1 [Example 109, 5-((3′-isopropyl-[1,1′-biphenyl]-4-yl)oxy)-1H-1,2,3-triazole-4-carboxylic Acid] | > 200 nM
5 | O=C(O)c1nn[nH]c1Oc1cccc(Br)c1 [Example 7, 5-(3-bromophenoxy)-1H-1,2,3-triazole-4-carboxylic Acid] | 100 to 200 nM

Second part, the compound after the results:

Row | IC50 | Structure (SMILES)
6 | 100 to 200 nM | O=C(O)c1nn[nH]c1Oc1ccc(-c2nccs2)cc1 [Example 25, 5-(4-(thiazol-2-yl)phenoxy)-1H-1,2,3-triazole-4-carboxylic Acid]
7 | > 200 nM | CC(C)(C)c1ccc(Oc2[nH]nnc2C(=O)O)cc1 [Example 68, 5-(4-(tert-butyl)phenoxy)-1H-1,2,3-triazole-4-carboxylic Acid]
8 | < 100 nM | O=C(O)c1nn[nH]c1Oc1ccc(-c2cnn(C3CCC3)c2)cc1 [Example 21, 5-(4-(1-cyclobutyl-1H-pyrazol-4-yl)phenoxy)-1H-1,2,3-triazole-4-carboxylic Acid]
9 | > 200 nM | O=C(O)c1nn[nH]c1Oc1cccnc1Br [Example 66, 5-((2-bromopyridin-3-yl)oxy)-1H-1,2,3-triazole-4-carboxylic Acid]
10 | < 100 nM | Cc1cc(-c2ccc(Oc3[nH]nnc3C(=O)O)cc2)ccn1 [Example 81, 5-(4-(2-methylpyridin-4-yl)phenoxy)-1H-1,2,3-triazole-4-carboxylic Acid]

Reference: patent US11401246B2, “Triazole glycolate oxidase inhibitors” (CANTERO THERAPEUTICS, INC., priority 2018, dated 2022)
